Tests used:
SW48 xenografts = conditions: 240 mg/kg qd oral
WRN helicase = WRN helicase (Homo sapiens (Human), UniProt Q14191); assay: In vitro enzymatic activity assay on WRN helicase (DNA dependent ATPase assay, ADP-Glo); format: biochemical; conditions: geometric means of at least 2 determinations; read-out: WRN ATPase Activity (IC50)
Method in brief: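 The WRN helicase core (aa N517-P1238), 10 nM, hydrolysed 300 µM ATP in the presence of 0.2 nM FLAP26 DNA (Tris pH 7.5, 2 mM MgCl2, 50 mM NaCl) for 30 min at room temperature. ADP formed was quantified by ADP-Glo luminescence.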

SW48 cells = assay: Proliferation assay SW48 (CellTiterGlo, 96 hours); conditions: Homo sapiens, SW48, read-out: Proliferation Assay SW48 (GI50)
DLD1-WRN-KO cells = assay: Proliferation assay DLD1-WRN-KO (CellTiterGlo, 96 hours; off-target effects); conditions: Homo sapiens, read-out: Proliferation Assay DLD1-WRN-KO (GI50)

Sequence of WRN helicase (Q14191 517-1238): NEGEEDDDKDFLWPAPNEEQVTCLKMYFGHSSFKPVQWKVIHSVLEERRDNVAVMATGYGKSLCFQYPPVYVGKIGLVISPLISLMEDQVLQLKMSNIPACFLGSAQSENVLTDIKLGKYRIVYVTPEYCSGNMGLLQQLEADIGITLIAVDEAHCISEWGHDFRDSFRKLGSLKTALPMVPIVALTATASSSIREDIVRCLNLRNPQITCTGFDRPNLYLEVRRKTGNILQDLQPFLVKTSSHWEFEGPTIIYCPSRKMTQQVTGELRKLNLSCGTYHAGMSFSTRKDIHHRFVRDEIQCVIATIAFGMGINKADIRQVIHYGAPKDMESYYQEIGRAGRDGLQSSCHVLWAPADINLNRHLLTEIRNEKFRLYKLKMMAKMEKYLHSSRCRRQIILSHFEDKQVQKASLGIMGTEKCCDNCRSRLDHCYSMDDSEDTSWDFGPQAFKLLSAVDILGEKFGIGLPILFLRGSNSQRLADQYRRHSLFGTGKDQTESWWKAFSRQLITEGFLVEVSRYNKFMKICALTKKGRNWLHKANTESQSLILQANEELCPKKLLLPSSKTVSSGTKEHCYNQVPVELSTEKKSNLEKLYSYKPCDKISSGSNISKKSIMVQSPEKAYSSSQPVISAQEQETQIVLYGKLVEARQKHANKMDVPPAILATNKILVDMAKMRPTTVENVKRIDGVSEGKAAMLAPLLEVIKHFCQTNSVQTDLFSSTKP

## CCc1c(N2CCN(C(=O)c3ncccc3O)CC2)c(=O)n2nc(C3=CCOCC3)nc2n1CC(=O)Nc1ccc(C(F)(F)F)cc1C [Example 58, 2-(2-(3,6-dihydro-2H-pyran-4-yl)-5-ethyl-6-(4-(3-hydroxypicolinoyl)piperazin-1-yl)-7-oxo-[1,2,4]triazolo[1,5-a]pyrimidin-4(7H)-yl)-N-(2-methyl-4-(trifluoromethyl)phenyl)acetamide]
SW48 xenografts; SW48 xenografts in nude mice
  antitumor response: induced an antitumor response
SW48 xenografts; day 18, SW48 xenografts in nude mice, p<0.05 vs vehicle
  T/C % value: −9%
SW48 xenografts; day 18, in the 4/7 surviving animals
  tumor regression (mean tumor volume): −26%

## CCc1c(N2CCN(C(=O)c3ncccc3O)CC2)c(=O)n2nc(C3=CCCCO3)nc2n1CC(=O)Nc1ccc(C(F)(F)F)cc1C [Example 83, 2-(2-(3,4-dihydro-2H-pyran-6-yl)-5-ethyl-6-(4-(3-hydroxypicolinoyl)piperazin-1-yl)-7-oxo-[1,2,4]triazolo[1,5-a]pyrimidin-4(7H)-yl)-N-(2-methyl-4-(trifluoromethyl)phenyl)acetamide]
WRN helicase
  IC50: 0.09 µM
SW48 cells
  GI50: 0.06 µM
DLD1-WRN-KO cells
  GI50: > 10 µM

## CCc1c(N2CCN(C(=O)c3ncccc3O)CC2)c(=O)n2nc(N3CCOCC3)nc2n1CC(=O)Nc1cc(F)c(C(F)(F)F)cc1Cl [Example 7, N-(2-chloro-5-fluoro-4-(trifluoromethyl)phenyl)-2-(5-ethyl-6-(4-(3-hydroxypicolinoyl)piperazin-1-yl)-2-morpholino-7-oxo-[1,2,4]triazolo[1,5-a]pyrimidin-4(7H)-yl)acetamide]
WRN helicase
  IC50: 0.09 µM
SW48 cells
  GI50: 0.21 µM
DLD1-WRN-KO cells
  GI50: > 10 µM

Reference: US11878973B2, “Bicyclic compounds and their uses” (NOVARTIS AG, priority 2021, dated 2024)
